The values that follow come from ChEMBL document CHEMBL1146328, “Binding mode and affinity studies of DNA-binding agents using topoisomerase I DNA unwinding assay” (Bioorg Med Chem Lett, 2007).

As usually defined, the ΔTm is the change in melting temperature against a reference sample. The logP is a log measure of how a compound divides between an organic and an aqueous phase. Lower therefore signals lower lipophilicity.

Data set [1] is filed under the species Homo sapiens. The data set can be described thus: Binding affinity to DNA by spectrophotometric titration method.
For data set [2], the species on record is Homo sapiens. The data set is described as follows: Binding affinity to DNA assessed as thermal melting temperature.
In data set [3] the test system is DNA. The data set can be described thus: Binding affinity to calf thymus DNA by ITC method. The data set is classed as nucleic-acid assay. The conditions noted are these: Bos taurus. For orientation: Isothermal titration calorimetry measures the heat released or taken up as one component is titrated into another.
Data set [4] can be described thus: Partition coefficient, log P of the compound. Format: physicochemical. The settings on record: octanol/water.
For data set [5], the target named is T1, DNA topoisomerase 1 (Homo sapiens) (UniProt P11387).
T1 sequence (whole entry): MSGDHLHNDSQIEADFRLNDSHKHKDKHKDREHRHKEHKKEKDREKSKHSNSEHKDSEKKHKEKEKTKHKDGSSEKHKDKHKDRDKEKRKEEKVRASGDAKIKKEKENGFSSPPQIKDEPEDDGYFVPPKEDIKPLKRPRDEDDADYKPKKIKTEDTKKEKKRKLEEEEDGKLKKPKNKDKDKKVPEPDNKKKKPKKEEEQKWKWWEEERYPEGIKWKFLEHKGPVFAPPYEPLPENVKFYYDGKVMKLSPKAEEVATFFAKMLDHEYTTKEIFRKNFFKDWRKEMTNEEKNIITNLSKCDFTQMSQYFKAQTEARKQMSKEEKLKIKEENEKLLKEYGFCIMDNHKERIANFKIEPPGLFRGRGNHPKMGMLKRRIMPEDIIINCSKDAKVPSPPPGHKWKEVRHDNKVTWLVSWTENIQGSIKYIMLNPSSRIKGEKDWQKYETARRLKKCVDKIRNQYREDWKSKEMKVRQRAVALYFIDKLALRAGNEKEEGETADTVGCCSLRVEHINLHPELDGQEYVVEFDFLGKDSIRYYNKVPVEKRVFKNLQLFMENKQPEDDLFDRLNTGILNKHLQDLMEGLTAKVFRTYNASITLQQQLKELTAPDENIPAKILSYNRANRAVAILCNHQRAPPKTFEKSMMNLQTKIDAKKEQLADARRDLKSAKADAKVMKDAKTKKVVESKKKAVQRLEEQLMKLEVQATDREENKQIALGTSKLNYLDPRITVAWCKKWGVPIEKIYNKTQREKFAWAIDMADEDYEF
The data set is described as follows: Binding affinity to topoisomerase 1 assessed as concentration needed for complete DNA re-supercoiling by Topo1 assay.

`C[N+](C)(C)CCCN1C(=O)c2ccc3c4c(ccc(c24)C1=O)C(=O)N(CCC[N+](C)(C)C)C3=O`: the values for the K in data set [1] and in data set [3] were 5 10^5/M and 12.2 10^5/M, respectively. Moreover, the ΔTm in data set [2] was 7.6 °C. The compound also came in with a logP in data set [4] of -2.5. In addition, in data set [5], the Activity was found to be 3 µM.
For `CCCC[N+](C)(CCCC)CCCN1C(=O)c2ccc3c4c(ccc(c24)C1=O)C(=O)N(CCC[N+](C)(CCCC)CCCC)C3=O`, in that order: 1 10^5/M, 5.7 10^5/M, 4.6 °C, -0.9 and 5 µM.
